Values quoted from earlier work, collected in patent US20180235992A1, “IMMUNOTHERAPIES FOR MALIGNANT, NEURODEGENERATIVE AND DEMYELINATING DISEASES BY THE USE OF TARGETED NANOCARRIERS” (RODOS BIOTARGET GMBH, priority 2015, published 2018).

How the values were obtained:
[1] = tested on: pancreatic cancer; conditions: given intravenously, equal dose
[2] = tested on: human vascular endothelial cells; conditions: in vitro
[3] = tested on: squamous cell carcinoma head and neck cell lines
[4] = tested on: human pancreatic cancer; conditions: mouse, in vivo
[5] = tested on: mantle cell lymphoma
[6] = tested on: human acute myelogenous leukemia cell line HL-60
[7] = tested on: multiple myeloma cell lines
[8] = tested on: Alzheimer's β-amyloid fibrils; conditions: in vitro
[9] = tested on: human melanoma cells; conditions: Fas Receptor/Caspase-8 pathway independent of p53
[10] = tested on: pancreatic cancer cells; conditions: modulating miR-200 and miR-21 expression
[11] = tested on: pancreatic cancer model; conditions: in vivo
[12] = tested on: Fibroblast Growth Factor-2-induced angiogenic response; conditions: in-vivo

Compound: COc1cc(/C=C/C(=O)CC(=O)/C=C/c2ccc(O)c(OC)c2)ccc1O [curcumin]
- tumor weights and volumes [1]: failed to cause a significant reduction
- proliferation [2]: suppresses the proliferation
- apoptosis [3]: induces apoptosis
- tumor growth and angiogenesis [4]: inhibits tumor growth and angiogenesis
- proliferation and apoptosis [5]: suppress proliferation, and induce apoptosis
- apoptosis [6]: induces apoptosis
- expression of NF-κB, Bcl-2 and Bcl-XL [7]: suppresses expression
- anti-amyloidogenic effects [8]: potent anti-amyloidogenic effects
- apoptosis [9]: induces apoptosis
- gemcitabine sensitivity [10]: induces gemcitabine sensitivity
- antitumor activity of gemcitabine [11]: potentiates the antitumor activity of gemcitabine
- angiogenic response [12]: inhibits

Compound: [DLys(6)]-LHRH-curcumin
- tumor weights and volumes [1]: caused a reduction in tumor weights and volumes
